The results in this text go back to US9557338B2 (SIGNAL PHARMACEUTICALS, LLC, priority 2012, dated 2017).

Bounds are passed on as bounds.

What all share (assay type): cell-based
Assay [1] has as its system Phospho-PRAS40(T246). Description: Luminex multiplex assay, Phospho-PRAS40(T246). The following applies: PC3 cell line; read-out: Luminex PRAS40. The source says: (§1) Determination of Phospho-GSK3β(S9), Phospho-PRAS40(T246) and Phospho-4E-BP1(T46) and the Effect of Compound 1 or Rapamycin.
(§2) The multiplex Luminex assay format differs from conventional enzyme-linked immunosorbent assay (ELISA) in that the multiplex capture antibody is attached to a polystyrene bead whereas the ELISA capture antibody is attached to the microplate well. The use of the suspension bead-based technology enables the multiplexing capabilities of the Luminex assays. The xMAP® technology uses 5.6 micron polystyrene microspheres, which are internally dyed with red and infrared fluorophores of differing intensities. Each bead is given a unique number, or bead region, allowing differentiation of one bead from another. Beads covalently bound to different specific antibodies can be mixed in the same assay, utilizing a 96-well microplate format. At the completion of the sandwich immunoassay, beads can be read, using the Luminex 100™ or Luminex 200 detection system, in single-file by dual lasers for classification and quantification of each analyte. The Akt-Pathway Phospho 5-plex kit used was custom made and includes the ability to simultaneously measure p-GSK3β (S9), p-PRAS40(T246), and p-4E-BP1(T46).
(§3) Cells were plated at the required density. The cells were treated with either Compound 1 or rapamycin over a range of concentrations for 1 hour in 5% CO2 at 37° C. Compound 1 and rapamycin were used at the same concentrations as for the proliferation assay. As for the cell proliferation assay, a reference standard was included in the assay for PC3 cells and the coefficient of variation for assay of p-GSK3β(S9) was 37.8% (n=30), p-PRAS40(T246) was 27.8% (n=30) and for p4E-BP1(T46) was 13.5% (n=4). For three cell lines (HCT-116, MDA-MB-231 and HT29) in the assay for phosphorylation of GSK3β, PRAS40 and 4E-BP1, IGF-I stimulation (500 ng/mL, recombinant human IGF-I) for the last 10 min of incubation was used. The media was aspirated from the wells and the plate was placed on ice. Then 35 μL of Lysis Buffer was added to each well and incubated on ice for at least 30 minutes. During the incubation, the standard curve for each phosphoprotein was prepared. The standards provided were reconstituted and serial dilutions were prepared according to the manufacturer's instructions. At the end of the cell lysis step, […] of the lysate was transferred to a V-bottom plate and spun at 4° C. at 2000 rpm for 5 minutes. Both the 1× Luminex bead and 1× detector antibody solutions were prepared during this time. The 1× bead solution was vortexed and 25 μL was added into each well of a black round bottom plate. Then 50 μL of the 1× detector antibody was added to each well. Fifty microliters (50 μL) of the prepared standards were added to the designated wells. Then 25 μL of the assay diluent was added to each well designated for the compound-treated cell lysates. At the end of the spin, 25 μL of cell lysate was added to the corresponding wells of the black assay plate. The assay plate was covered with the white plate lid and incubated for 3 hours at room temperature on an orbital shaker.
(§4) Approximately 10-15 minutes prior to the end of the first incubation, the secondary antibody solution was prepared according to the vendor's protocol. Goat anti-rabbit R-phycoerythrin red fluorescent protein (RPE) supplied as a 10× concentrate was diluted to generate a 1× goat anti-rabbit RPE stock. The 96-well filter plate was pre-wet with 200 μL of 1× Working wash solution. At the end of the 3 hour incubation, a multichannel pipette was used to transfer the entire contents from each assay well into the wells of the filter plate. The liquid from the wells was removed by aspiration with the vacuum manifold. Then 200 μL of 1× Working wash solution was added into each well. The wash solution was aspirated using the vacuum manifold after 15-30 seconds. This wash step was repeated one time. The bottom of the plate was blotted on clean paper towels to remove residual liquid. […]

Assay [2] deals with p70S6K. In words: Luminex multiplex assay, p70S6K phosphorylation in cell lysates. The following applies: PC3 cell line; read-out: Luminex p70S6K.
Text: as §2, §3, §4

Assay [3] has as its system Phospho-GSK3β(S9). In words: Luminex multiplex assay, Phospho-GSK3β(S9). The following applies: PC3 cell line; read-out: Luminex GSK-3β.
Text: as §1, §2, §3, §4

For `CC(C)(O)c1ccc(-c2cnc3c(n2)N(CC2CC2)CC(=O)N3)cn1` [C-17], the IC50 in assay [1] was 2900 nM; in assay [2], 549 nM; in assay [3], greater than 5000 nM.

Take `O=C1CN(CCC2CCOCC2)c2nc(-c3ccc(-c4nnc[nH]4)c(F)c3)cnc2N1` [C-18]: the IC50 was 27 nM in assay [1], 4 nM in assay [2] and 37 nM in assay [3].

Take `COCCN1C(=O)CNc2ncc(-c3ccc(-c4nc[nH]n4)c(F)c3C)nc21` [C-19]: the IC50 in assay [1] worked out at 53 nM; in assay [2], 6 nM; in assay [3], 156 nM.

In the case of `O=C1CNc2ncc(-c3ccc(-c4nnc[nH]4)c(F)c3)nc2N1CCC1CCOCC1` [C-20], the IC50 in assay [1] is greater than 50 nM; in assay [2], 6 nM; in assay [3] it was greater than 50 nM.

For `COC1CCC(CN2CC(=O)Nc3ncc(-c4ccc(C(C)(C)O)nc4)nc32)C1` (stereo not drawn) [C-21], the IC50 in assay [1] worked out at 795 nM; in assay [2] it was 105 nM; in assay [3], 1680 nM.

As for `COC1CCC(CN2CC(=O)Nc3ncc(-c4ccc(C(C)(C)O)nc4)nc32)C1` (stereo not drawn) [C-22], the IC50 is 1140 nM in assay [1], 86 nM in assay [2] and 2980 nM in assay [3].

For `COC1CCC(N2CC(=O)Nc3ncc(-c4ccc(C(C)(C)O)nc4)nc32)C1` (stereo not drawn) [C-23], the IC50 amounted to 1440 nM in assay [1], 207 nM in assay [2] and 1770 nM in assay [3].

On to `CO[C@H]1CC[C@H](N2CC(=O)Nc3ncc(-c4ccc(C(C)(C)O)nc4)nc32)C1` [C-24], for which the IC50 was 3660 nM in assay [1], 843 nM in assay [2] and greater than 5000 nM in assay [3].

Regarding `CO[C@@H]1CC[C@@H](CN2CC(=O)Nc3ncc(-c4ccc(C(C)(C)O)nc4)nc32)C1` [C-25], the IC50 worked out at 705 nM in assay [1], 94 nM in assay [2] and 1780 nM in assay [3].

On to `CO[C@H]1CC[C@H](CN2CC(=O)Nc3ncc(-c4ccc(C(C)(C)O)nc4)nc32)C1` [C-26], for which the IC50 came out at 498 nM in assay [1], 104 nM in assay [2] and 1430 nM in assay [3].

Consider `COCCN1C(=O)CNc2ncc(-c3ccc(-c4nnc[nH]4)c(F)c3)nc21` [C-27], for which the IC50 was determined as 27 nM in assay [1], 8 nM in assay [2] and 32 nM in assay [3].

Consider `CO[C@@H]1CC[C@H](N2CC(=O)Nc3ncc(-c4ccc(C(C)(C)O)nc4)nc32)C1` [C-28], for which the IC50 in assay [1] is 2360 nM; in assay [2], 452 nM; in assay [3] it was greater than 5000 nM.

Turning to `COC1CCC(N2CC(=O)Nc3ncc(-c4ccc(C(C)(C)O)nc4)nc32)C1` (stereo not drawn) [C-29], the IC50 in assay [1] is 2130 nM; in assay [2] it was 235 nM; in assay [3], greater than 5000 nM.

For the compound `Cc1cc(-c2nnc[nH]2)ncc1-c1cnc2c(n1)N(CC1CCOCC1)C(C)(C)C(=O)N2` [C-30], the IC50 in assay [1] was determined as 5 nM; in assay [2] it was 1 nM; in assay [3], 21 nM.

As to `Cc1cc(-c2nnc[nH]2)ccc1-c1cnc2c(n1)N(Cc1ccccc1)C(=O)CN2` [C-31], the IC50 was 14 nM in assay [1], 2 nM in assay [2] and greater than 5000 nM in assay [3].

On to `COCCN1CC(=O)Nc2ncc(-c3ccc(-c4nnc[nH]4)c(F)c3C)nc21` [C-32], for which the IC50 in assay [1] was 59 nM; in assay [2] it was 12 nM; in assay [3] it was 169 nM.

With `Cc1c(-c2cnc3c(n2)N(CCC2CCOCC2)CC(=O)N3)ccc(-c2nnc[nH]2)c1F` [C-34], the IC50 was 1520 nM in assay [1], 21 nM in assay [2] and greater than 5000 nM in assay [3].

On to `Cc1cc(-c2cnc3c(n2)N(CC2CCOCC2)C(=O)CN3)cc2[nH]c(=O)[nH]c12` [C-38], for which the IC50 in assay [1] is 3250 nM; in assay [2], 5000 nM; in assay [3], greater than 5000 nM.

Turning to `CNc1nc2c(C)cc(-c3cnc4c(n3)N(CCOC)C(=O)CN4)cc2[nH]1` [C-39], the IC50 in assay [1] was 1400 nM; in assay [2], 283 nM; in assay [3], greater than 5000 nM.

Consider `O=C1CN(CCC2CCOCC2)c2nc(-c3ccc4[nH]ccc4c3)cnc2N1` [C-40], for which the results for the IC50 in assay [1], in assay [2] and in assay [3] were greater than 5000 nM, 1520 nM and greater than 5000 nM, respectively.

As to `O=C1CN(CCC2CCOCC2)c2nc(-c3ccc4cc[nH]c4c3)cnc2N1` [C-41], the IC50 in assay [1] was 5000 nM; in assay [2] it was 746 nM; in assay [3], 3180 nM.

For `COC1CCC(CN2C(=O)CNc3ncc(-c4ccc(C(C)(C)O)nc4)nc32)CC1` (stereo not drawn) [C-42], the IC50 in assay [1] amounted to 44 nM; in assay [2], 16 nM; in assay [3], 268 nM.

In the case of `COCCn1c(=O)[nH]c2ncc(-c3cnc4[nH]ccc4c3)nc21` [C-43], the IC50 was 524 nM in assay [1], 201 nM in assay [2] and 214 nM in assay [3].

In the case of `O=C1CN(CCC2CCOCC2)c2nc(-c3cnc4[nH]ccc4c3)cnc2N1` [C-44], the IC50 in assay [1] came out at 98 nM; in assay [2], 17 nM; in assay [3], 313 nM.

On to `CC(C)(O)c1ccc(-c2cnc3c(n2)N(C2CCOCC2)C(=O)CN3)cn1` [C-47], for which the IC50 is 1470 nM in assay [1], 497 nM in assay [2] and 3110 nM in assay [3].

Take `COC1CCC(N2C(=O)CNc3ncc(-c4ccc(C(C)(C)O)cc4)nc32)CC1` (stereo not drawn) [C-48]: the IC50 in assay [1] amounted to 415 nM; in assay [2], 80 nM; in assay [3], 502 nM.

Consider `O=C1CNc2ncc(-c3ccc4cc[nH]c4c3)nc2N1CCC1CCOCC1` [C-49], for which the IC50 in assay [1] came out at 1990 nM; in assay [2] it was 468 nM; in assay [3], 3840 nM.

`CO[C@H]1CC[C@H](N2CC(=O)Nc3ncc(-c4ccc(-c5nnc[nH]5)nc4C)nc32)C1` [C-50]: the IC50 in assay [1] was greater than 500 nM; in assay [2], 48 nM; in assay [3], greater than 500 nM.

For the compound `COC1CCC(N2CC(=O)Nc3ncc(-c4ccc(-c5nnc[nH]5)nc4C)nc32)C1` (stereo not drawn) [C-51], the IC50 in assay [1] turned out to be 816 nM; in assay [2], 46 nM; in assay [3], 859 nM.

For the compound `COC1CCC(N2CC(=O)Nc3ncc(-c4ccc(-c5nnc[nH]5)nc4C)nc32)C1` (stereo not drawn) [C-52], the IC50 in assay [1] was determined as 960 nM; in assay [2], 88 nM; in assay [3], 1100 nM.

As to `COC1CCC(N2CC(=O)Nc3ncc(-c4ccc(-c5nnc[nH]5)nc4C)nc32)C1` (stereo not drawn) [C-53], the IC50 in assay [1] stood at 1160 nM; in assay [2], 232 nM; in assay [3], 1140 nM.

For `O=C1CNc2ncc(-c3ccc4[nH]ccc4c3)nc2N1CCC1CCOCC1` [C-55], the IC50 in assay [1] is 228 nM; in assay [2] it was 25 nM; in assay [3] it was 341 nM.

Regarding `CO[C@H]1CC[C@H](N2C(=O)CNc3ncc(-c4ccc(-c5nnc[nH]5)nc4C)nc32)C1` [C-56], the results for the IC50 in assay [1], in assay [2] and in assay [3] were 113 nM, 45 nM and 269 nM, respectively.

As for `CO[C@H]1CC[C@@H](N2C(=O)CNc3ncc(-c4ccc(-c5nnc[nH]5)nc4C)nc32)C1` [C-57], the IC50 in assay [1] was found to be 123 nM; in assay [2] it was 6 nM; in assay [3], 170 nM.

`CO[C@@H]1CC[C@@H](N2C(=O)CNc3ncc(-c4ccc(-c5nnc[nH]5)nc4C)nc32)C1` [C-58]: the IC50 in assay [1] is 209 nM; in assay [2], 48 nM; in assay [3] it was 507 nM.

Turning to `COC1CCC(N2C(=O)CNc3ncc(-c4ccc(-c5nnc[nH]5)nc4C)nc32)C1` (stereo not drawn) [C-59], the IC50 was 99 nM in assay [1], 28 nM in assay [2] and 126 nM in assay [3].
